# Where a name gives a salt, the structure may show the parent alone.
# Assays:
# [1] = test system: Proteus morganii 1510; assay: Minimum Inhibitory Concentration (MIC), antibacterial spectrum in vitro; assay type: cell-based; conditions: Morganella morganii; Proteus morganii 1510; read-out: Minimum Inhibitory Concentration (MIC)
# [2] = test system: Pseudomonas aeruginosa (GN 10362); assay: Efficacy in Mice Infected with Pseudomonas aeruginosa (GN 10362); assay type: in vivo; conditions: GN10362, sc, 168 h, Ps. aeruginosa (GN 10362) intraperitoneal infection, mice, single subcutaneous dose one hour after infection, 7 days, read-out: ED 50
# Source text: (§1) A systemic infection was produced by intraperitoneal injection of the appropriate pathogen to mice (five male mice in each group, average body weight 20 g), and the mice were received single subcutaneous dose of the compound one hour after the infection.
# [3] = test system: Esherichia coli TEM DC-2; assay: Minimum Inhibitory Concentration (MIC), antibacterial spectrum in vitro; assay type: cell-based; conditions: read-out: Minimum Inhibitory Concentration (MIC)
# [4] = test system: Citrobacter freundii GN-346; assay: as above; assay type: cell-based; conditions: GN346; Citrobacter freundii GN-346; read-out: Minimum Inhibitory Concentration (MIC)
# [5] = test system: Staphylococcus aureus 209 P JC-1; assay: as above; assay type: cell-based; conditions: 209PJC1; Staphylococcus aureus 209 P JC-1; read-out: Minimum Inhibitory Concentration (MIC)
# [6] = test system: Klebsiella pneumoniae PCI 602; assay: as above; assay type: cell-based; conditions: PCI602; Klebsiella pneumoniae PCI 602; read-out: Minimum Inhibitory Concentration (MIC)
# [7] = test system: Pseudomonas aeruginosa E-2; assay: as above; assay type: cell-based; conditions: E2; Pseudomonas aeruginosa E-2; read-out: Minimum Inhibitory Concentration (MIC)
# [8] = test system: Pseudomonas aeruginosa RPL-11; assay: as above; assay type: cell-based; conditions: RPL11; Pseudomonas aeruginosa RPL-11; read-out: Minimum Inhibitory Concentration (MIC)
# [9] = test system: Salmonella typhimurium LT-2; assay: as above; assay type: cell-based; conditions: Salmonella enterica; Salmonella typhimurium LT-2; read-out: Minimum Inhibitory Concentration (MIC)
# [10] = test system: Pseudomonas aeruginosa MB-3833; assay: as above; assay type: cell-based; conditions: MB3833; Pseudomonas aeruginosa MB-3833; read-out: Minimum Inhibitory Concentration (MIC)
# [11] = test system: Esherichia coli NIHJ JC-2; assay: as above; assay type: cell-based
# [12] = test system: Enterobacter cloacae P99; assay: as above; assay type: cell-based; conditions: P99, read-out: Minimum Inhibitory Concentration (MIC)
# [13] = test system: Pseudomonas aeruginosa; assay: Antibacterial activity against Pseudomonas aeruginosa (from Table 1); assay type: cell-based; conditions: in words
# [14] = Concentration in Blood Serum after subcutaneous dosing (bioassay using Escherichia coli); assay type: in vivo; conditions: mouse, sc, 25 mg/Kg subcutaneously, mice
# Protocol: The concentration of the compound in the serum was determined by bioassay using Escherichia coli as assay microorganism.
# [15] = test system: Streptococcus faecalis ATCC 8043; assay: Minimum Inhibitory Concentration (MIC), antibacterial spectrum in vitro; assay type: cell-based; conditions: Enterococcus faecalis, ATCC8043; Streptococcus faecalis ATCC 8043; read-out: Minimum Inhibitory Concentration (MIC)
# [16] = test system: Staphylococus aureus (Smith I); assay: Efficacy in Mice Infected with Staphylococus aureus (Smith I); assay type: in vivo; conditions: Staphylococcus aureus, sc, 168 h, St. aureus (Smith I) intraperitoneal infection, single subcutaneous dose one hour after infection, 7 days
# Source text: as §1
compound,measurement,setting,value
"C[n+]1ccc(SCC2=C(C(=O)[O-])N3C(=O)C(NC(=O)C(=NOC(C)(C)C(=O)O)c4csc(N)n4)C3OC2)cc1 [Compound 14, (6R,7R)-7-((Z)-2-(2-Aminothiazole-4-yl)-2-(2-carboxyprop-2-oxyimino)acetamide-3-(1-methylpyridinium-4-yl-thiomethyl)-1-oxa-1-dethiaceph-3-em-4-carboxylate (Sodium Salt)]",MIC,[1],3.13 µg/mL
same,ED50,[2],0.13 mg/kg
same,MIC,[3],0.25 µg/mL
same,MIC,[4],50 µg/mL
same,MIC,[5],1.56 µg/mL
same,MIC,[6],0.1 µg/mL
same,MIC,[7],1.56 µg/mL
same,MIC,[8],64 µg/mL
same,MIC,[9],< 0.025 µg/mL
same,MIC,[10],1.56 µg/mL
same,MIC,[11],0.1 µg/mL
same,MIC,[12],128 µg/mL
same,effectiveness against Pseudomonas aeruginosa,[13],effective against Pseudomonas aeruginosa
same,concentration at 0.5 h,[14]; 1/2 hour,8800 ng/mL
same,concentration at 0.25 h,[14]; 1/4 hour,11500 ng/mL
same,concentration at 5 min,[14]; 1/12 hour,18000 ng/mL
same,concentration at 1 h,[14]; 1 hour,5000 ng/mL
same,MIC,[15],> 100 µg/mL
same,ED50,[16],0.016 mg/kg

# Reference: patent US4645769A, “1-oxa-1-dethia-cephalosporin compounds and antibacterial agent comprising the same” (Merck & Co., Inc., priority 1985, dated 1987)
